Data reported in US10961215B2, “N-aryl and N-heteroaryl piperidine derivatives as liver X receptor beta agonists, compositions, and their use” (Merck Sharp & Dohme Corp., priority 2016, dated 2021).
pEC50: −log10 of the molar value.

Legend:
[1] = target: T1, GST tagged LXRbeta LBD (ligand binding domain) (Homo sapiens, UniProt P55055); test: LanthaScreen TR-FRET Liver X Receptor Coactivator Assay, LXR beta-LBD (co-activator recruitment; IP and % Emax relative to T0901317); assay type: biochemical; settings: for pEC50: Inflection Point of co-activator recruitment, LXR beta-LBD, TR-FRET; for Emax: efficacy at max dose in relation to reference T0901317, LXR beta-LBD, read-out: LXR beta actiivty at max dose (%)
T1 construct: purchased Invitrogen pv4658.pps
T1 sequence (P55055 222-460 limits assumed): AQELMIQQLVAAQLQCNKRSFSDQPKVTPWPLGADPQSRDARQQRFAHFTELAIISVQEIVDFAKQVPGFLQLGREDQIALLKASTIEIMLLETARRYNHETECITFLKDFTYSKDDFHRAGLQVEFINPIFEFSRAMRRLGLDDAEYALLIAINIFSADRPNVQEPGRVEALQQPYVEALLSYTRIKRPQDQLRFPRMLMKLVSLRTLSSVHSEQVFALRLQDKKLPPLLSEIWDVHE
Method in brief: (§1)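 Readout is time-resolved FRET between a terbium anti-GST antibody bound to the tagged LBD and a fluorescein-labelled coactivator peptide recruited on ligand binding. Samples are incubated at room temperature before reading, and efficacy is expressed against T0901317.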

[2] = target: T2, GST tagged LXRalpha LBD (ligand binding domain) (Homo sapiens, UniProt Q13133); test: LanthaScreen TR-FRET Liver X Receptor Coactivator Assay, LXR alpha-LBD (co-activator recruitment; IP and % Emax relative to T0901317); assay type: biochemical; settings: for LXR alpha IP (nM) / pEC50: Inflection Point of co-activator recruitment, LXR alpha-LBD, TR-FRET; for Emax: read-out: LXR alpha actiivty at max dose (%)
T2 construct: purchased Invitrogen pv4655
T2 sequence (Q13133 209-447 limits assumed): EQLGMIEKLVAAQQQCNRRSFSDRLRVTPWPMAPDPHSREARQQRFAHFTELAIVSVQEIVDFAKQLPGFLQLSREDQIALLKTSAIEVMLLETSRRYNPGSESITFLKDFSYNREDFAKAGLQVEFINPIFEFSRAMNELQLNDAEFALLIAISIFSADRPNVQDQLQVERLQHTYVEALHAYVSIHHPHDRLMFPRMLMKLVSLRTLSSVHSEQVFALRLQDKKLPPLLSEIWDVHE
Method in brief: as §1

[3] = efficacy at max dose in relation to reference T0901317, LXR alpha-LBD

| Compound | pEC50 [1] | Emax [1] [%] | LXR alpha IP (nM) [2] | Emax [2, 3] [%] | pEC50 [2] | LXR alpha actiivty at max dose (%) [2, 3] [%] |
| --- | --- | --- | --- | --- | --- | --- |
| COc1cccc([C@@](O)(C(=O)N(C)CCCC2CCN(c3ccc(C(=O)N(C)C(C)C)c(Cl)n3)CC2)C(F)(F)F)c1 [Example 2-4, (R)-2-chloro-N-isopropyl-N-methyl-6-(4-(3-(3,3,3-trifluoro-2-hydroxy-2-(3-methoxyphenyl)-N-methylpropanamido)propyl)piperidin-1-yl)nicotinamide] | 7.62 | 61 | No IP | 0 | – | – |
| COc1cccc([C@@](O)(C(=O)N(C)C2CC(CC3CCN(c4ccc(C(=O)N(C)C)c(C)n4)CC3)C2)C(F)(F)F)c1 (single isomer, unassigned) [Example 11-1] | 6.14 | 42 | No IP | 0 | – | – |
| CN(C)C(=O)c1ccc(N2CCC(CCCN(C)C(=O)[C@@](O)(c3cc(F)cc(Cl)c3)C(F)(F)F)CC2)nc1Cl [Example 1-11, (S)-2-chloro-6-(4-(3-(2-(3-chloro-5-fluorophenyl)-3,3,3-trifluoro-2-hydroxy-N-methylpropanamido)propyl)piperidin-1-yl)-N,N-dimethylnicotinamide] | 6.34 | 59 | No IP | 0 | – | – |
| COc1cccc([C@@](O)(C(=O)N(C)CC[C@@H]2CC23CCN(c2ccc(C(=O)N(C)C(C)C)c(Cl)c2)CC3)C(F)(F)F)c1 [Example 7-30, 2-chloro-N-isopropyl-N-methyl-4-((S)-1-(2-((R)-3,3,3-trifluoro-2-hydroxy-2-(3-methoxy-phenyl)-N-methyl-propanamido)ethyl)-6-azaspiro[2.5]octan-6-yl)benzamide] | 6.25 | 27 | No IP | 0 | – | – |
| COc1cccc([C@@](O)(C(=O)Nc2ccc(C3CCN(c4ccc(C(=O)N(C)C)c(Cl)c4)CC3)cc2)C(F)(F)F)c1 [Example 10-3, (R)-2-chloro-N,N-dimethyl-4-(4-(4-(3,3,3-trifluoro-2-hydroxy-2-(3-methoxyphenyl)propanamido)phenyl)piperidin-1-yl)benzamide] | 5.88 | 67 | No IP | 18 | – | – |
| CN(C)C(=O)c1ccc(N2CCC(CCCN(C)C(=O)[C@](O)(c3ccccc3)C3CCC3)CC2)nc1Cl [Example 1-22, (R)-2-chloro-6-(4-(3-(2-cyclobutyl-2-hydroxy-N-methyl-2-phenylaceetamido)propyl)piperidin-1-yl)-N,N-dimethylnicotinamide] | 7.19 | 94 | No IP | 9 | – | – |
| Cc1cccc([C@](O)(C(=O)N(C)CCCC2CCN(c3ccc(C(=O)N(C)C)c(Cl)n3)CC2)C(F)(F)F)c1 [Example 1-16, (S)-2-chloro-N,N-dimethyl-6-(4-(3-(3,3,3-trifluoro-2-hydroxy-N-methyl-2-m-tolylpropanamido)propyl)piperidin-1-yl)nicotinamide] | 6.75 | 54 | No IP | 1 | – | – |
| COc1cccc([C@@](O)(C(=O)N(C)CC[C@H]2CC23CCN(c2ccc(C(=O)N(C)C(C)C)c(Cl)n2)CC3)C(F)(F)F)c1 [Example 7-17, 2-chloro-N-isopropyl-N-methyl-6-((R)-1-(2-((R)-3,3,3-trifluoro-2-hydroxy-2-(3-methoxyphenyl)-N-methylpropanamido)ethyl)-6-azaspiro[2.5]octan-6-yl)nicotinamide] | 7.92 | 59 | – | 36 | 6.80 | – |
| COc1cccc([C@@](O)(C(=O)N(C)CCCC2CCN(c3ccc(C(=O)N4CCC4)c(Cl)n3)CC2)C(F)(F)F)c1 [Example 2-15, (R)-N-(3-(1-(5-(azetidine-1-carbonyl)-6-chloropyridin-2-yl)piperidin-4-yl)propyl)-3,3,3-trifluoro-2-hydroxy-2-(3-methoxyphenyl)-N-methylpropanamide] | 6.57 | 49 | No IP | 0 | – | – |
| COc1cccc([C@@](O)(C(=O)N(C)CCCC2(F)CCN(c3ccc(C(=O)N(C)C)c(Cl)n3)CC2)C(F)(F)F)c1 [Example 12-3, (R)-2-chloro-6-(4-fluoro-4-(3-(3,3,3-trifluoro-2-hydroxy-2-(3-methoxyphenyl)-N-methylpropanamido)propyl)piperidin-1-yl)-N,N-dimethylnicotinamide] | 6.82 | 58 | No IP | 12 | – | – |
| CN(C)C(=O)c1ccc(N2CCC(CCCNC(=O)[C@](O)(c3ccccc3)C(F)(F)F)CC2)nc1Cl [Example 5-8, (R)-2-chloro-N,N-dimethyl-6-(4-(3-(3,3,3-trifluoro-2-hydroxy-2-phenylpropanamido)propyl)piperidin-1-yl) nicotinamide] | 6.98 | 104 | – | 28 | 5.29 | – |
| COc1cccc([C@@](O)(C(=O)N(C)CC[C@H]2CC23CCN(c2ccc(C(=O)NC4CC4)c(Cl)c2)CC3)C(F)(F)F)c1 [Example 7-9, 2-chloro-N-cyclopropyl-4-((R)-1-(2-((R)-3,3,3-trifluoro-2-hydroxy-2-(3-methoxyphenyl)-N-methylpropanamido)ethyl)-6-azaspiro[2.5]octan-6-yl)benzamide] | 6.96 | 52 | – | 25 | 6.11 | – |
| CN(C)C(=O)c1ccc(N2CCC(CCCN(C)C(=O)[C@@]3(C(F)(F)F)CCCO3)CC2)nc1Cl [Example 1-7, (R)-2-chloro-N,N-dimethyl-6-(4-(3-(N-methyl-2-(trifluoromethyl)-tetrahydrofuran-2-carboxamido)propyl)piperidin-1-yl)nicotinamide] | 6.84 | 94 | – | 57 | 5.60 | – |
| CN(C)C(=O)c1ccc(N2CCC(F)(CCCN(C)C(=O)[C@](O)(c3ccccc3)C(F)(F)F)CC2)cc1Cl [Example 12-1, (R)-2-chloro-4-(4-fluoro-4-(3-(3,3,3-trifluoro-2-hydroxy-N-methyl-2-phenylpropanamido)propyl)piperidin-1-yl)-N,N-dimethylbenzamide] | 6.58 | 44 | No IP | 12 | – | – |
| COc1cccc([C@@](O)(C(=O)N(C)CCCC2CCN(c3cc(Cl)c(C(=O)N(C)C)cn3)CC2)C(F)(F)F)c1 [Example 2-21, (R)-4-chloro-N,N-dimethyl-6-(4-(3-(3,3,3-trifluoro-2-hydroxy-2-(3-methoxyphenyl)-N-methylpropanamido)propyl)piperidin-1-yl)nicotinamide] | 5.72 | 30 | – | 26 | 5.23 | – |
| CN(C)C(=O)c1ccc(N2CCC(C)(CCCN(C)C(=O)[C@]3(c4ccccc4)CCCO3)CC2)nc1Cl [Example 9-3, (R)-2-chloro-N,N-dimethyl-6-(4-methyl-4-(3-(N-methyl-2-phenyltetrahydrofuran-2-carboxamido)propyl)piperidin-1-yl)nicotinamide] | 7.85 | 94 | – | 31 | 6.70 | – |
| CN(C)C(=O)c1ccc(N2CCC(CCCN(C)C(=O)[C@](O)(c3cccc(C4CC4)c3)C(F)(F)F)CC2)nc1Cl [Example 1-33, (R)-2-chloro-6-(4-(3-(2-(3-cyclopropylphenyl)-3,3,3-trifluoro-2-hydroxy-N-methylpropanamido)propyl)piperidin-1-yl)-N,N-dimethylnicotinamide] | 7.77 | 70 | No IP | 0 | – | – |
| CN(C)C(=O)c1ccc(N2CCC(CCCNC(=O)[C@@]3(c4ccccc4)CCCO3)CC2)nc1Cl [Example 5-18, (S)-2-chloro-N,N-dimethyl-6-(4-(3-(2-phenyltetrahydrofuran-2-carboxamido)propyl)piperidin-1-yl)nicotinamide] | 6.00 | 66 | No IP | 7 | – | – |
| Cc1cccc([C@@](O)(C(=O)N(C)CCCC2CCN(c3ccc(C(=O)N(C)C)c(Cl)n3)CC2)C(F)(F)F)c1 [Example 1-15, (R)-2-chloro-N,N-dimethyl-6-(4-(3-(3,3,3-trifluoro-2-hydroxy-N-methyl-2-m-tolylpropanamido)propyl)piperidin-1-yl)nicotinamide] | 7.12 | 55 | No IP | 0 | – | – |
| CN(C)C(=O)c1ccc(N2CCC([C@@H]3C[C@H]3CNC(=O)[C@@](O)(c3ccccc3)C(F)(F)F)CC2)cc1Cl [Example 15-17, 2-chloro-N,N-dimethyl-4-(4-((1S,2R)-2-(((S)-3,3,3-trifluoro-2-hydroxy-2-phenylpropanamido)methyl)cyclopropyl)piperidin-1-yl)benzamide] | 6.30 | 79 | No IP | – | – | 0 |
